Measurements: PMC6828666, “Discovery of holoenzyme-disrupting chemicals as substrate-selective CK2 inhibitors” (Scientific Reports, 2019)
pIC50: −log10 of the molar value. Values joined by “and” are separate entries in the source; they are usually repeats but may differ in a detail not shown here. Identical values can stand only once. “Also recorded” adds a separate entry of the source.

Legend:
CK2α2β2 holoenzyme = target: T1, CK2α2β2 holoenzyme (Homo sapiens, UniProt P68400); experiment: CK2 kinase assay with CK2β-dependent peptide substrate (eIF2-derived); format: biochemical; conditions: for pIC50: phosphorylation of CK2β-dependent peptide substrate
T1 construct: made in house; host or cells: Escherichia coli (CK2α)
T1 sequence (P68400 whole entry): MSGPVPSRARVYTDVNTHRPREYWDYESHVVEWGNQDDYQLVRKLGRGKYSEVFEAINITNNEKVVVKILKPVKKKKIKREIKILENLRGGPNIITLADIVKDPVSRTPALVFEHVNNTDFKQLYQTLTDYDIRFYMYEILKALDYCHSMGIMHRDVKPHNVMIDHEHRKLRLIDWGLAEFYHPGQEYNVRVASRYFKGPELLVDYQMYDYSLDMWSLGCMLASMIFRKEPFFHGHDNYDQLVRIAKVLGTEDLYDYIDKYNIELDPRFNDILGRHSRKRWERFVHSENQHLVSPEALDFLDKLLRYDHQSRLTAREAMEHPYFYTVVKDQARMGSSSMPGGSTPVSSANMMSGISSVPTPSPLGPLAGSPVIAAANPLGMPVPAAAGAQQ
Description: First, all the compounds were dissolved at 200 μM in 50 mM Tris-HCl pH 7.5 buffer containing 0.1 M NaCl and 5% DMSO; the compounds that precipitated under these conditions were discarded. The 32 remaining compounds were diluted at 200 μM in the kinase buffer and centrifuged at 14,000 g. The supernatant was then assayed for ability to inhibit phosphorylation of a CK2β-dependent peptide substrate. For this, a 22-residue long N-terminal fragment of the eukaryotic translation initiation factor 2 (eIF2), known to be exclusively phosphorylated by the CK2α2β2 holoenzyme[4] was used as a substrate. […]
Final concentration of ATP was 100 μM. Assays were performed under linear kinetic conditions for 5 min at room temperature before termination by the addition of 60 μL of 4% TCA. ^32P incorporation in peptide substrate was determined as previously described. […]

[1] = system: Akt phosphorylation at Ser129 in MCF10A cells; experiment: Western blot of Akt Ser129 phosphorylation; format: cell-based, human; conditions: 48 h
Description: Figure 5 Cellular effects of compounds 3, 4 and 6. MCF10A cells were incubated for 24 h with either DMSO or 30 μM TAT or 30 μM TAT-Pc or 25 μM 6 (a) or with increasing concentrations of 6 (b) or 3 (c). MCF10A cells were incubated for 48 h with either DMSO or with increasing concentrations of 3 or 6 (d). Cells were then lysed and analyzed by western blot with the indicated antibodies. Blot images are representative of at least three independent experiments. Uncropped blots are shown in Supplementary Fig. S16. (e) MDA-MB231 cells were treated with 40 μM 6 (⚬), 4 (▴) or 3 (X). (f) MDA-MB231 cells were treated for 30 h with increasing concentrations of 6 (⚬) or 4 (▴). Insert: cells were treated for 30 h with 80 μM 6 or 10 μM CX-4945. […] Cell death was automatically quantified from images captured every 3 h for the duration of the experiments using an Essen IncuCyte Zoom live-cell microscopy incubator. […]
Cells were lysed in RIPA buffer (10 mM Tris-HCl pH 7.4, 150 mM NaCl, 1% Triton X-100, 0.1% SDS, 0.5% DOC and 1 mM EDTA) containing both protease- and phosphatase-inhibitor cocktails (Sigma-Aldrich; P8340, P2850, P5726). Cell homogenates were quantified using BCA protein Assay kit (Thermo Scientific). […] Luminata Forte Western HRP substrate (Millipore) was added and membranes were read with Fusion Fx7 (PerkinElmer). […] Images were analyzed and band intensities were quantified using ImageJ software. […]

MDA-MB231 cells [2] = experiment: Scratch wound cell migration assay; format: cell-based; conditions: MDA-MB231, 40 μM
Description: Cells seeded at equal density were allowed to grow to confluence overnight. The Essen Bioscience WoundMaker^TM, an accessory for the IncuCyte Zoom®, was utilized to create Scratch-wounds of a standardized width (~600 μm). Cells were treated with the indicated inhibitors and imaged every 15 min for 44 h and the percentage of wound confluence was analyzed.
Fig. S10. […] MCF10A cells (a) or MDA-MB231 cells (b) were allowed to grow to confluence overnight. Wounds of a standardized width were created using the Essen Bioscience WoundMakerTM. […] Wound closure was monitored using the Essen IncuCyte Zoom live-cell microscopy incubator. Images were captured every 2 h for the duration of the experiment. Error bars represent the SEM of two biological replicates derived from technical triplicates.

MDA-MB231 cells [3] = experiment: Cell death by propidium iodide live-cell imaging (IncuCyte); format: cell-based; conditions: for effect of pan-caspase inhibitor Z-VAD on compound-induced cell death: 80 μM compound, 20 μM Z-VAD
Description: Figure 5 Cellular effects of compounds 3, 4 and 6. MCF10A cells were incubated for 24 h with either DMSO or 30 μM TAT or 30 μM TAT-Pc or 25 μM 6 (a) or with increasing concentrations of 6 (b) or 3 (c). MCF10A cells were incubated for 48 h with either DMSO or with increasing concentrations of 3 or 6 (d). Cells were then lysed and analyzed by western blot with the indicated antibodies. Blot images are representative of at least three independent experiments. Uncropped blots are shown in Supplementary Fig. S16. (e) MDA-MB231 cells were treated with 40 μM 6 (⚬), 4 (▴) or 3 (X). (f) MDA-MB231 cells were treated for 30 h with increasing concentrations of 6 (⚬) or 4 (▴). Insert: cells were treated for 30 h with 80 μM 6 or 10 μM CX-4945. (g) Cells were incubated with 80 μM 6 or 4 in the absence or presence of 20 μM Z-VAD. […] (h) MDA-MB231 cells (⚬) or MCF10A cells (⦁) were incubated for 24 h with 80 μM 6. Cell death was automatically quantified from images captured every 3 h for the duration of the experiments using an Essen IncuCyte Zoom live-cell microscopy incubator. Error bars represent the SEM of two biological replicates derived from technical triplicates.
Cells grown on 96-well flat-bottomed plates (Corning Falcon) were tracked using an Essen IncuCyte Zoom live-cell microscopy instrument, an automated live cell imager with high-throughput capabilities and built-in data analysis. Experiments were conducted at 37 °C and 5% CO2. The software incorporated into the IncuCyte Zoom was used to analyze the images.
Cells plated at equal density (2 × 10^4 cells/well) were treated with the indicated inhibitors in cell culture medium containing 0.5 μg/ml Propidium iodide (Sigma-Aldrich). Images of PI-stained red fluorescent cells were captured every 3 h for the duration of the experiment. For apoptosis detection, 50 μL/mL fluorochrome-conjugated Annexin V (Molecular Probes) was added to the medium together with Propidium iodide and apoptotic cell numbers were calculated.

[4] = compound at 50 μM, CK2β-dependent peptide substrate

Row | SMILES | inhibition of CK2β-dependent phosphorylation upon addition of Triton X-100 (CK2α2β2 holoenzyme; 0.01% vol/vol Triton X-100, 50 μM compound) | inhibition at 50 µM (CK2α2β2 holoenzyme; [4]) | reversibility of inhibition (CK2α2β2 holoenzyme; dilution of the reaction mixture or gel filtration) | pIC50 (CK2α2β2 holoenzyme) | Akt phosphorylation at Ser129 ([1]; 100 µM) | cell migration / wound closure (MDA-MB231 cells [2]) | cell death (MDA-MB231 cells [3]; MDA-MB231, 40 μM) | effect of pan-caspase inhibitor Z-VAD on compound-induced cell death (MDA-MB231 cells [3]) | time to retraction of membrane extension by the majority of cells (MDA-MB231 cells [3]; MDA-MB231, 40 μM) | concentration at which cell death was already detectable (MDA-MB231 cells [3]; MDA-MB231, 30 h) | cell death (MDA-MB231 cells [3]; MDA-MB231, 30 h, 80 μM) | Inhibition % at 50 μM (CK2α2β2 holoenzyme; [4]) | Akt phosphorylation at Ser129 ([1]; 30 µM) | sensitivity of MDA-MB231 cells to compound-mediated cell death compared with MCF10A cells (MDA-MB231 cells [3]; 80 μM, 24 h)
1 | COc1[nH]c2ccc(F)cc2c1C(=O)OCC1CCN(CCNS(C)(=O)=O)CC1 [Compound 1] | not affected | 48% | reversed | ~4.30 and 4.30 |  |  |  |  |  |  |  |  |  | 
2 | CS(=O)(=O)NCCN1CCC(COC(=O)c2c[nH]c3ccccc23)CC1 [Compound 3, (1-(2-(Methylsulfonamido)ethyl)piperidin-4-yl)methyl 1H-indole-3-carboxylate] |  | 28% |  |  | slight but not statistically significant alteration | not affected | without effect |  |  |  |  |  |  | 
3 | O=C(OCC1CCN(CCNS(=O)(=O)c2ccccc2)CC1)c1c[nH]c2ccccc12 [Compound 4, (1-(2-(Phenylsulfonamido)ethyl)piperidin-4-yl)methyl 1H-indole-3-carboxylate] |  | 57% |  | 4.35 |  |  |  | not significantly affected | 9 h | 20 µM | massive |  |  | 
4 | COc1[nH]c2ccc(F)cc2c1C(=O)OCC1CCN(CCNS(=O)(=O)c2ccccc2)CC1.Cl [Compound 6] |  |  |  |  |  | completely abrogated |  | significantly affected; also recorded: significantly attenuated | 9 h | 20 µM | massive | 80% | slight but not statistically significant alteration | much more sensitive
